Test results: patent publication US9896441B2 (Lycera Corporation, priority 2014, dated 2018)

Columns and labels:
Gal4-RORγ-LBD = target: T1, Gal4-RORγ-LBD (Homo sapiens, UniProt P51449); assay: Gal4-RORγ Luciferase Reporter Assay in HEK-293T Cells; format: cell-based; conditions: HEK-293 cells; for Gal4-RORγ Assay Max Response: maximum response
T1 construct: expressed in transfected cells
T1 sequence (P51449 269-508 limits assumed): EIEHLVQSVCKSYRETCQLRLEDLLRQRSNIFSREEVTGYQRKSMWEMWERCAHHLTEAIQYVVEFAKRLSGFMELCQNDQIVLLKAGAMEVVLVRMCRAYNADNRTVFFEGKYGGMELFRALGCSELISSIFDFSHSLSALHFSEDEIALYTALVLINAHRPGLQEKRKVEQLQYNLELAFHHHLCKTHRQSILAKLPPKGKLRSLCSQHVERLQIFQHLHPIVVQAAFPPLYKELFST
Summary of the method: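 Max Response was taken as the upper plateau of a 4-parameter logistic fit of luciferase signal, normalized to 100 for wells without ursolic acid or compound. Transiently Gal4-RORγ-LBD/Gal4-luc transfected HEK-293 cells carrying […] ursolic acid were incubated with test compounds (0.2% DMSO) overnight at 37 °C and read with One-Glo.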

RORγ-LBD = target: T2, RORγ-LBD (Homo sapiens, UniProt P51449); assay: RORγ-Ligand Binding Domain (LBD) TR-FRET Assay; format: biochemical; conditions: for TR-FRET Assay Max Response: maximum response;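 as to TR-FRET Assay Max Response: 665/615 nm signal ratio set to 100 without ursolic acid or test compound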
T2 construct: made in house; host or cells: SF9 cells (baculovirus); used as diluted lysate
T2 sequence (P51449 269-508 limits assumed): T1 sequence (P51449 269-508 limits assumed)
Summary of the method: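 TR-FRET read-out using a biotin-tagged SRC1 coactivator LXXLL peptide (200 nM final), with the antagonist ursolic acid present at 2 μM final. Receptor is His-tagged LBD expressed in SF9 cells, ~3 nM final in pH 7.0 Tris/KCl/EDTA/DTT/BSA buffer; compounds in 1% DMSO final.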

[1] = luciferase reporter, with ursolic acid
[2] = luciferase reporter, in presence of ursolic acid

## Cc1cnc(/C=C/c2ccc3c(c2)N(S(=O)(=O)c2cccc(C(F)(F)F)c2)C[C@H](CCC(=O)O)O3)c(F)c1 [Example 89CF, (S,E)-3-(6-(2-(3-fluoro-5-methylpyridin-2-yl)vinyl)-4-((3-(trifluoromethyl)phenyl)sulfonyl)-3,4-dihydro-2H-benzo[b][1,4]-oxazin-2-yl)propanoic acid]
Gal4-RORγ-LBD; [1]
  EC50: > 10000 nM
RORγ-LBD; RORγ-LBD TR-FRET
  EC50: 500 to 5000 nM

## C/C(=C\c1ccc2c(c1)N(S(=O)(=O)c1cccc(C(F)(F)F)c1)C[C@H](CCC(=O)N1CC[C@H](C(=O)O)C1)O2)c1c(F)cccc1Cl [Example 129C, (S)-1-(3-((S)-6-((E)-2-(2-chloro-6-fluorophenyl)-prop-1-en-1-yl)-4-((3-(trifluoromethyl)phenyl)sulfonyl)-3,4-dihydro-2H-benzo[b][1,4]oxazin-2-1)propanoyl)pyrrolidine-3-carboxylic acid]
Gal4-RORγ-LBD; [2]
  EC50: < 500 nM
  Gal4-RORγ Assay Max Response: ** (a value in the range of greater than 90 to 150)
RORγ-LBD; RORγ-LBD TR-FRET assay
  EC50: < 500 nM
  TR-FRET Assay Max Response: **** (a value greater than 200)

## CCOc1nn(CC)cc1S(=O)(=O)N1C[C@H](CCC(=O)O)Oc2ccc(/C=C(\C)c3c(F)cccc3Cl)cc21 [Example 86I, (S,E)-3-(6-(2-(2-chloro-6-fluorophenyl)prop-1-en-1-yl)-4-((3-ethoxy-1-ethyl-1H-pyrazol-4-yl)sulfonyl)-3,4-dihydro-2H-benzo[b][1,4]oxazin-2-yl)propanoic acid]
Gal4-RORγ-LBD; [1]
  EC50: 500 to 5000 nM
RORγ-LBD; RORγ-LBD TR-FRET
  EC50: < 500 nM

## COc1cc(S(=O)(=O)N2c3cc(/C=C/c4c(F)cccc4Cl)ccc3C[C@@H](O)[C@H]2C)ccc1F (racemic) [Example 168, (2R,3R)-7-((E)-2-Chloro-6-fluorostyryl)-1-((4-fluoro-3-methoxyphenyl)sulfonyl)-2-methyl-1,2,3,4-tetrahydroquinolin-3-ol]
Gal4-RORγ-LBD; [2]
  EC50: < 500 nM
  Gal4-RORγ Assay Max Response: * (a value in the range of 30 to 90)
RORγ-LBD; RORγ-LBD TR-FRET assay
  EC50: < 500 nM
  TR-FRET Assay Max Response: *** (a value in the range of greater than 150 to 200)

## C/C(=C\c1ccc2c(c1)N(S(=O)(=O)c1cccc(C(F)(F)F)c1)C[C@H](NC(=O)C(C)(C)O)C2)c1c(F)cccc1Cl [Example 116F, (R,E)-N-(7-(2-(2-chloro-6-fluorophenyl)prop-1-en-1-yl)-1-((3-(trifluoromethyl)-phenyl)sulfonyl)-1,2,3,4-tetrahydroquinolin-3-yl)-2-hydroxy-2-methylpropanamide]
Gal4-RORγ-LBD; [2]
  EC50: 500 to 5000 nM
  Gal4-RORγ Assay Max Response: * (a value in the range of 30 to 90)
RORγ-LBD; RORγ-LBD TR-FRET assay
  EC50: < 500 nM
  TR-FRET Assay Max Response: *** (a value in the range of greater than 150 to 200)

## CCOc1ncc(C(F)(F)F)cc1S(=O)(=O)N1C[C@H](CCC(=O)N2CCC(C(=O)O)CC2)Oc2ccc(/C=C(\C)c3c(F)cccc3Cl)cc21 [Example 129L, (S,E)-1-(3-(6-(2-(2-chloro-6-fluorophenyl)-prop-1-en-1-yl)-4-((2-ethoxy-5-(trifluoro-methyl)pyridin-3-yl)sulfonyl)-3,4-dihydro-2H-benzo[b][1,4]oxazin-2-yl)propanoyl)-piperidine-4-carboxylic acid]
Gal4-RORγ-LBD; [2]
  EC50: < 500 nM
  Gal4-RORγ Assay Max Response: * (a value in the range of 30 to 90)
RORγ-LBD; RORγ-LBD TR-FRET assay
  EC50: < 500 nM
  TR-FRET Assay Max Response: *** (a value in the range of greater than 150 to 200)

## CCOc1nn(CC)cc1S(=O)(=O)N1C[C@H](CCC(=O)O)Oc2ccc(/C=C/c3c(Cl)cccc3Cl)cc21 [Example 89CR, (S,E)-3-(6-(2,6-dichlorostyryl)-4-((3-ethoxy-1-ethyl-1H-pyrazol-4-yl)sulfonyl)-3,4-dihydro-2H-benzo[b][1,4]oxazin-2-yl)-propanoic acid]
Gal4-RORγ-LBD; [1]
  EC50: < 500 nM
RORγ-LBD; RORγ-LBD TR-FRET
  EC50: < 500 nM

## CC/C(=C\c1ccc2c(c1)N(S(=O)(=O)c1cc(C(F)(F)F)cnc1OCCO)C[C@H](CCC(=O)O)O2)C(C)C [Example 191E, (S,E)-3-(6-(2-ethyl-3-methylbut-1-en-1-yl)-4-((2-(2-hydroxy-ethoxy)-5-(trifluoromethyl)-pyridin-3-yl)sulfonyl)-3,4-dihydro-2H-benzo[b][1,4]oxazin-2-yl)propanoic acid]
Gal4-RORγ-LBD; ursolic acid present, luciferase readout
  EC50: 500 to 5000 nM
RORγ-LBD; with 2 μM ursolic acid (RORγ antagonist), highest test concentration 10 μM
  EC50: < 500 nM

## O=C(O)CC[C@H]1CN(S(=O)(=O)c2cccc(C(F)(F)F)c2)c2cc(/C=C3\CC4CCC3C4)ccc2O1 (stereo partly drawn) [Example 95S, 3-((2S)-6-((E)-bicyclo[2.2.1]heptan-2-ylidenemethyl)-4-((3-(trifluoromethyl)phenyl)sulfonyl)-3,4-dihydro-2H-benzo[b][1,4]oxazin-2-yl)propanoic acid]
Gal4-RORγ-LBD; [1]
  EC50: < 500 nM
RORγ-LBD; RORγ-LBD TR-FRET
  EC50: < 500 nM

## CCn1cc(S(=O)(=O)N2C[C@H](CNC(C)=O)Oc3ccc(/C=C/c4c(F)cccc4Cl)cc32)c(Cl)n1 [Example 109D, (S,E)-N-((4-((3-chloro-1-ethyl-1H-pyrazol-4-yl)sulfonyl)-6-(2-chloro-6-fluorostyryl)-3,4-dihydro-2H-benzo[b][1,4]oxazin-2-yl)methyl)acetamide]
Gal4-RORγ-LBD; [2]
  EC50: 500 to 5000 nM
  Gal4-RORγ Assay Max Response: ** (a value in the range of greater than 90 to 150)
RORγ-LBD; RORγ-LBD TR-FRET assay
  EC50: < 500 nM
  TR-FRET Assay Max Response: *** (a value in the range of greater than 150 to 200)

## CCc1nc(S(=O)(=O)N2C[C@H](CCC(=O)O)Oc3ccc(/C=C/c4c(F)cccc4Cl)cc32)c[nH]1 [Example 89DW, (S,E)-3-(6-(2-chloro-6-fluorostyryl)-4-((2-ethyl-1H-imidazol-4-yl)sulfonyl)-3,4-dihydro-2H-benzo[b][1,4]-oxazin-2-yl)propanoic acid]
Gal4-RORγ-LBD; [1]
  EC50: > 10000 nM
RORγ-LBD; RORγ-LBD TR-FRET
  EC50: > 10000 nM

## O=C(O)CC[C@H]1CN(S(=O)(=O)c2cccc(C(F)F)c2)c2cc(/C=C/c3c(Cl)cccc3C(F)F)ccc2O1 [Example 89EP, (S,E)-3-(6-(2-chloro-6-(difluoromethyl)styryl)-4-((3-(difluoromethyl)phenyl)-sulfonyl)-3,4-dihydro-2H-benzo[b][1,4]oxazin-2-yl)propanoic acid]
Gal4-RORγ-LBD; [1]
  EC50: < 500 nM
RORγ-LBD; RORγ-LBD TR-FRET
  EC50: < 500 nM

## CC/C(C)=C\c1ccc2c(c1)N(S(=O)(=O)c1cccc(C(F)(F)F)c1)C[C@H](CCC(=O)OC)O2 [Example 191C, methyl (S,Z)-3-(6-(2-methylbut-1-en-1-yl)-4-((3-(trifluoromethyl)phenyl)-sulfonyl)-3,4-dihydro-2H-benzo[b][1,4]oxazin-2-yl)propanoate]
Gal4-RORγ-LBD; [2]
  EC50: 500 to 5000 nM
  Gal4-RORγ Assay Max Response: ** (a value in the range of greater than 90 to 150)
RORγ-LBD; RORγ-LBD TR-FRET assay
  EC50: < 500 nM
  TR-FRET Assay Max Response: **** (a value greater than 200)

## C/C(=C\c1ccc2c(c1)N(S(=O)(=O)c1cccc(C(F)(F)F)c1)C[C@H](CCN1CCOCC1)O2)c1c(F)cccc1Cl [Example 119A, (S,E)-6-(2-(2-chloro-6-fluorophenyl)prop-1-en-1-yl)-2-(2-morpholinoethyl)-4-((3-(trifluoromethyl)phenyl)sulfonyl)-3,4-dihydro-2H-benzo[b][1,4]oxazine]
Gal4-RORγ-LBD; [2]
  EC50: < 500 nM
  Gal4-RORγ Assay Max Response: ** (a value in the range of greater than 90 to 150)
RORγ-LBD; RORγ-LBD TR-FRET assay
  EC50: < 500 nM
  TR-FRET Assay Max Response: **** (a value greater than 200)

## C/C(=C\c1ccc2c(c1)C(S(=O)(=O)c1cccc(C(F)(F)F)c1)CC(CC(C)(C)C(=O)O)O2)c1c(F)cccc1Cl (stereo not shown) [Example 186N, (E)-3-(6-(2-(2-chloro-6-fluorophenyl)prop-1-en-1-yl)-4-((3-(trifluoromethyl)phenyl)-sulfonyl)chroman-2-yl)-2,2-dimethylpropanoic acid]
Gal4-RORγ-LBD; [2]
  EC50: < 500 nM
  Gal4-RORγ Assay Max Response: ** (a value in the range of greater than 90 to 150)
RORγ-LBD; RORγ-LBD TR-FRET assay
  EC50: < 500 nM
  TR-FRET Assay Max Response: *** (a value in the range of greater than 150 to 200)
